{"source": "EPA's ToxRefDB 2", "key": {"rat [1]": {"test_system": "rat", "conditions": "Prenatal developmental toxicity study, sprague dawley, Oral, Gavage/Intubation, dose end: 20 GD"}, "mouse [2]": {"test_system": "mouse", "conditions": "Subchronic oral toxicity in rodents, other, Gavage/Intubation, dose end: 13 week, group: systemic, systemic / clinical chemistry / alanine aminotransferase (alt/sgpt) / alanine aminotransferase (alt/sgpt) + systemic / clinical chemistry / …"}, "mouse [3]": {"test_system": "mouse", "conditions": "Combined chronic toxicity/carcinogenicity, b6c3f1, Oral, Gavage/Intubation, dose end: 2 year, group: systemic"}, "rat [4]": {"test_system": "rat", "conditions": "Combined chronic toxicity/carcinogenicity; fischer; Oral; Gavage/Intubation; dose end: 2 year; group: systemic; systemic / in life observation / body weight / body weight + systemic / pathology microscopic / kidney / nephropathy + systemic / pathology …"}, "rat [5]": {"test_system": "rat", "conditions": "Fertility (Segment I), sprague dawley, Oral, Gavage/Intubation, dose end: 0 mating"}, "rat [6]": {"test_system": "rat", "conditions": "Subchronic oral toxicity in rodents, wistar, Water, dose end: 90 day"}, "rat [7]": {"test_system": "rat", "conditions": "Multigenerational reproductive toxicity study, sprague dawley, Oral, Gavage/Intubation, dose end: 2 generation"}, "mouse [8]": {"test_system": "mouse", "conditions": "Multigenerational reproductive toxicity study, other, Oral, Gavage/Intubation, dose end: 21 PND"}, "rat [9]": {"test_system": "rat", "conditions": "Subchronic oral toxicity in rodents, fischer, Gavage/Intubation, dose end: 6 month, group: systemic"}, "mouse [10]": {"test_system": "mouse", "conditions": "Subchronic oral toxicity in rodents, b6c3f1, Gavage/Intubation, dose end: 6 month, group: systemic"}, "[11]": {"conditions": "group: developmental, developmental / developmental malformation / bone / [other] + developmental / developmental malformation / bone / fused + developmental / …"}, "[12]": {"conditions": "group: developmental, systemic / in life observation / body weight / fetal weight"}, "[13]": {"conditions": "group: maternal, reproductive / reproductive performance / postimplantation loss / postimplantation loss + systemic / in life observation / body weight / …"}, "[14]": {"conditions": "group: maternal, systemic / in life observation / body weight / body weight gain"}, "[15]": {"conditions": "systemic / pathology microscopic / kidney / nephropathy + systemic / pathology microscopic / kidney / vacuolization cytoplasmic"}, "[16]": {"conditions": "systemic / pathology microscopic / kidney / nephropathy + systemic / pathology microscopic / kidney / vacuolization cytoplasmic + systemic…"}, "[17]": {"conditions": "group: maternal, reproductive / reproductive performance / implantations / implantations"}, "[18]": {"conditions": "group: parental, systemic / clinical chemistry / luteinizing hormone (lh) / luteinizing hormone (lh) + systemic / clinical chemistry / progesterone / …"}, "[19]": {"conditions": "group: parental, systemic / in life observation / body weight / body weight gain"}, "[20]": {"conditions": "group: maternal, reproductive / reproductive performance / fertility / fertility + reproductive / reproductive performance / mating / mating"}, "[21]": {"conditions": "group: systemic, systemic / organ weight / epididymis / absolute + systemic / organ weight / prostate / absolute + systemic / organ weight / seminal vesicle…"}, "[22]": {"conditions": "group: systemic, systemic / pathology gross / sperm measure / sperm count + systemic / pathology gross / sperm measure / sperm motility"}, "[23]": {"conditions": "group: offspring, developmental / offspring survival late / viability index / viability index + systemic / in life observation / body weight / offspring (pup…"}, "[24]": {"conditions": "group: offspring, systemic / in life observation / body weight / offspring (pup) weight + systemic / organ weight / liver / absolute + systemic / organ weight…"}, "[25]": {"conditions": "group: parental, systemic / in life observation / body weight / body weight + systemic / in life observation / mortality / mortality + systemic / organ …"}, "[26]": {"conditions": "group: parental, systemic / in life observation / mortality / mortality + systemic / organ weight / kidney / absolute + systemic / organ weight / kidney / …"}, "[27]": {"conditions": "group: reproductive, reproductive / reproductive performance / fertility / fertility + reproductive / offspring survival early / litter size / litter size + …"}, "[28]": {"conditions": "group: reproductive, reproductive / reproductive performance / fertility / fertility + reproductive / reproductive performance / implantations / implantations + …"}, "[29]": {"conditions": "group: offspring, developmental / offspring survival late / viability index / viability index"}, "[30]": {"conditions": "group: parental, systemic / organ weight / kidney / relative to body weight"}, "[31]": {"conditions": "group: parental, systemic / organ weight / kidney / relative to body weight + systemic / in life observation / body weight / body weight"}, "[32]": {"conditions": "group: reproductive, reproductive / reproductive performance / fertility / fertility"}, "[33]": {"conditions": "group: reproductive, reproductive / reproductive performance / fertility / fertility + reproductive / offspring survival early / live fetuses / live fetuses"}, "[34]": {"conditions": "systemic / in life observation / body weight / body weight + systemic / clinical chemistry / alanine aminotransferase (alt/sgpt) / alanine …"}, "[35]": {"conditions": "systemic / pathology microscopic / kidney / vacuolization cytoplasmic + systemic / in life observation / body weight / body weight + …"}}, "data": [{"compound": "CC[C@H](C)C(=O)O[C@H]1C[C@@H](C)C=C2C=C[C@H](C)[C@H](CC[C@@H]3C[C@@H](O)CC(=O)O3)[C@H]21", "note": "[Lovastatin]", "values": [{"measurement": "LOAEL", "setting": "rat [1]; [11]", "value": "> 800", "unit": "mg/kg/day"}, {"measurement": "NOAEL", "setting": "rat [1]; [11]", "value": "≥ 800", "unit": "mg/kg/day"}, {"measurement": "LEL", "setting": "rat [1]; [12]", "value": 100, "unit": "mg/kg/day"}, {"measurement": "NEL", "setting": "rat [1]; [12]", "value": "< 100", "unit": "mg/kg/day"}, {"measurement": "LOAEL", "setting": "rat [1]; [13]", "value": "> 800", "unit": "mg/kg/day"}, {"measurement": "NOAEL", "setting": "rat [1]; [13]", "value": "≥ 800", "unit": "mg/kg/day"}, {"measurement": "LEL", "setting": "rat [1]; [14]", "value": 100, "unit": "mg/kg/day"}, {"measurement": "NEL", "setting": "rat [1]; [14]", "value": "< 100", "unit": "mg/kg/day"}, {"measurement": "LEL", "setting": "mouse [2]", "value": 30, "unit": "mg/kg/day"}, {"measurement": "LOAEL", "setting": "mouse [2]", "value": "> 30", "unit": "mg/kg/day"}, {"measurement": "NEL", "setting": "mouse [2]", "value": "< 30", "unit": "mg/kg/day"}, {"measurement": "NOAEL", "setting": "mouse [2]", "value": "≥ 30", "unit": "mg/kg/day"}]}, {"compound": "[Cl][Hg][Cl]", "note": "[Mercuric chloride]", "values": [{"measurement": "LOAEL", "setting": "mouse [3]; [15]", "value": 5, "unit": "mg/kg/day"}, {"measurement": "NOAEL", "setting": "mouse [3]; [15]", "value": "< 5", "unit": "mg/kg/day"}, {"measurement": "LEL", "setting": "mouse [3]; [16]", "value": 5, "unit": "mg/kg/day"}, {"measurement": "NEL", "setting": "mouse [3]; [16]", "value": "< 5", "unit": "mg/kg/day"}, {"measurement": "LEL", "setting": "rat [4]", "value": 2.5, "unit": "mg/kg/day"}, {"measurement": "LOAEL", "setting": "rat [4]", "value": 2.5, "unit": "mg/kg/day"}, {"measurement": "NEL", "setting": "rat [4]", "value": "< 2.5", "unit": "mg/kg/day"}, {"measurement": "NOAEL", "setting": "rat [4]", "value": "< 2.5", "unit": "mg/kg/day"}, {"measurement": "LEL", "setting": "rat [5]; [17]", "value": 2, "unit": "mg/kg/day"}, {"measurement": "LOAEL", "setting": "rat [5]; [17]", "value": "> 2", "unit": "mg/kg/day"}, {"measurement": "NEL", "setting": "rat [5]; [17]", "value": 1, "unit": "mg/kg/day"}, {"measurement": "NOAEL", "setting": "rat [5]; [17]", "value": "≥ 2", "unit": "mg/kg/day"}, {"measurement": "LOAEL", "setting": "rat [5]; [18]", "value": "> 2", "unit": "mg/kg/day"}, {"measurement": "NOAEL", "setting": "rat [5]; [18]", "value": "≥ 2", "unit": "mg/kg/day"}, {"measurement": "LEL", "setting": "rat [5]; [19]", "value": 1, "unit": "mg/kg/day"}, {"measurement": "NEL", "setting": "rat [5]; [19]", "value": "< 1", "unit": "mg/kg/day"}, {"measurement": "LEL", "setting": "rat [6]; [20]", "value": 5, "unit": "mg/kg/day"}, {"measurement": "LOAEL", "setting": "rat [6]; [20]", "value": "> 5", "unit": "mg/kg/day"}, {"measurement": "NEL", "setting": "rat [6]; [20]", "value": 2.5, "unit": "mg/kg/day"}, {"measurement": "NOAEL", "setting": "rat [6]; [20]", "value": "≥ 5", "unit": "mg/kg/day"}, {"measurement": "LOAEL", "setting": "rat [6]; [21]", "value": "> 5", "unit": "mg/kg/day"}, {"measurement": "NOAEL", "setting": "rat [6]; [21]", "value": "≥ 5", "unit": "mg/kg/day"}, {"measurement": "LEL", "setting": "rat [6]; [22]", "value": 2.5, "unit": "mg/kg/day"}, {"measurement": "NEL", "setting": "rat [6]; [22]", "value": "< 2.5", "unit": "mg/kg/day"}, {"measurement": "LOAEL", "setting": "rat [7]; [23]", "value": "> 2.5", "unit": "mg/kg/day"}, {"measurement": "NOAEL", "setting": "rat [7]; [23]", "value": "≥ 2.5", "unit": "mg/kg/day"}, {"measurement": "LEL", "setting": "rat [7]; [24]", "value": 0.5, "unit": "mg/kg/day"}, {"measurement": "NEL", "setting": "rat [7]; [24]", "value": "< 0.5", "unit": "mg/kg/day"}, {"measurement": "LOAEL", "setting": "rat [7]; [25]", "value": "> 2.5", "unit": "mg/kg/day"}, {"measurement": "NOAEL", "setting": "rat [7]; [25]", "value": "≥ 2.5", "unit": "mg/kg/day"}, {"measurement": "LEL", "setting": "rat [7]; [26]", "value": 0.5, "unit": "mg/kg/day"}, {"measurement": "NEL", "setting": "rat [7]; [26]", "value": "< 0.5", "unit": "mg/kg/day"}, {"measurement": "LEL", "setting": "rat [7]; [27]", "value": 0.5, "unit": "mg/kg/day"}, {"measurement": "NEL", "setting": "rat [7]; [27]", "value": "< 0.5", "unit": "mg/kg/day"}, {"measurement": "LOAEL", "setting": "rat [7]; [28]", "value": "> 2.5", "unit": "mg/kg/day"}, {"measurement": "NOAEL", "setting": "rat [7]; [28]", "value": "≥ 2.5", "unit": "mg/kg/day"}, {"measurement": "LEL", "setting": "mouse [8]; [29]", "value": 1, "unit": "mg/kg/day"}, {"measurement": "LOAEL", "setting": "mouse [8]; [29]", "value": "> 1", "unit": "mg/kg/day"}, {"measurement": "NEL", "setting": "mouse [8]; [29]", "value": 0.5, "unit": "mg/kg/day"}, {"measurement": "NOAEL", "setting": "mouse [8]; [29]", "value": "≥ 1", "unit": "mg/kg/day"}, {"measurement": "LEL", "setting": "mouse [8]; [30]", "value": 0.25, "unit": "mg/kg/day"}, {"measurement": "NEL", "setting": "mouse [8]; [30]", "value": "< 0.25", "unit": "mg/kg/day"}, {"measurement": "LOAEL", "setting": "mouse [8]; [31]", "value": "> 1", "unit": "mg/kg/day"}, {"measurement": "NOAEL", "setting": "mouse [8]; [31]", "value": "≥ 1", "unit": "mg/kg/day"}, {"measurement": "LEL", "setting": "mouse [8]; [32]", "value": 0.25, "unit": "mg/kg/day"}, {"measurement": "NEL", "setting": "mouse [8]; [32]", "value": "< 0.25", "unit": "mg/kg/day"}, {"measurement": "LOAEL", "setting": "mouse [8]; [33]", "value": "> 1", "unit": "mg/kg/day"}, {"measurement": "NOAEL", "setting": "mouse [8]; [33]", "value": "≥ 1", "unit": "mg/kg/day"}, {"measurement": "LEL", "setting": "rat [9]; [34]", "value": 0.312, "unit": "mg/kg/day"}, {"measurement": "NEL", "setting": "rat [9]; [34]", "value": "< 0.312", "unit": "mg/kg/day"}, {"measurement": "NOAEL", "setting": "rat [9]; systemic / in life observation / body weight / body weight + systemic / pathology microscopic / kidney / nephropathy + systemic / organ …", "value": 2.5, "unit": "mg/kg/day"}, {"measurement": "LOAEL", "setting": "rat [9]; systemic / pathology microscopic / kidney / nephropathy", "value": 5, "unit": "mg/kg/day"}, {"measurement": "LOAEL", "setting": "mouse [10]; systemic / pathology microscopic / kidney / vacuolization cytoplasmic", "value": 10, "unit": "mg/kg/day"}, {"measurement": "NEL", "setting": "mouse [10]; [35]", "value": 2.5, "unit": "mg/kg/day"}, {"measurement": "NOAEL", "setting": "mouse [10]; [35]", "value": 5, "unit": "mg/kg/day"}, {"measurement": "LEL", "setting": "mouse [10]; systemic / pathology microscopic / kidney / vacuolization cytoplasmic + systemic / organ weight / kidney / absolute", "value": 5, "unit": "mg/kg/day"}]}]}
